Laboratory results taken from ChEMBL document CHEMBL1201862, “PubChem BioAssay data set” (2004).
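How tested: cells in 96-well plates exposed to compound for 48 hours at five concentrations. The concentration for 50% growth inhibition is given as GI50.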 Activity calls are given as the source filed them. No stated cut-off is given here; in the data, active = GI50 up to about 1.1 µM and inactive = higher.

Key:
Experiment in all cases: DTP human tumour cell line panel, 48 h
CCRF-CEM = tested on: CCRF-CEM
COLO 205 = tested on: COLO 205
EKVX = tested on: EKVX
HCC 2998 = tested on: HCC 2998
HL-60 = tested on: HL-60
Hs-578T = tested on: Hs-578T
LOX IMVI = tested on: LOX IMVI
NCI-H23 = tested on: NCI-H23
PC-3 = tested on: PC-3
RPMI-8226 = tested on: RPMI-8226
RXF 393 = tested on: RXF 393
SF-268 = tested on: SF-268
SF-295 = tested on: SF-295
SK-MEL-5 = tested on: SK-MEL-5
SNB-75 = tested on: SNB-75
TK-10 = tested on: TK-10
UACC-257 = tested on: UACC-257
UACC-62 = tested on: UACC-62
IGROV-1 = tested on: IGROV-1

SMILES | GI50 (CCRF-CEM) | GI50 (COLO 205) | GI50 (EKVX) | GI50 (HCC 2998) | GI50 (HL-60) | GI50 (Hs-578T) | GI50 (LOX IMVI) | GI50 (NCI-H23) | GI50 (PC-3) | GI50 (RPMI-8226) | GI50 (RXF 393) | GI50 (SF-268) | GI50 (SF-295) | GI50 (SK-MEL-5) | GI50 (SNB-75) | GI50 (TK-10) | GI50 (UACC-257) | GI50 (UACC-62) | GI50 (IGROV-1)
COC(=O)C1=C(C)NC(C)=C(C(=O)OC)C1c1nc2sccn2c1[N+](=O)[O-] | > 100 µM (inactive) | > 100 µM (inactive) | 96.4 µM (inactive) | > 100 µM (inactive) | > 100 µM (inactive) | > 100 µM (inactive) | > 100 µM (inactive) | > 100 µM (inactive) | > 100 µM (inactive) | > 100 µM (inactive) | > 100 µM (inactive) | > 100 µM (inactive) | > 100 µM (inactive) | > 100 µM (inactive) | > 100 µM (inactive) | > 100 µM (inactive) | > 100 µM (inactive) | > 100 µM (inactive) | –
COc1cc(/C=C2\N=C(c3ccccc3)N(c3nc4c(OC)ccc(OC)c4s3)C2=O)cc(OC)c1OC | 31.2 µM (inactive) | 30.4 µM (inactive) | > 100 µM (inactive) | > 100 µM (inactive) | 30.4 µM (inactive) | > 100 µM (inactive) | 51.8 µM (inactive) | > 100 µM (inactive) | 59.7 µM (inactive) | 43 µM (inactive) | 85.1 µM (inactive) | > 100 µM (inactive) | > 100 µM (inactive) | 34.8 µM (inactive) | > 100 µM (inactive) | > 100 µM (inactive) | 55.6 µM (inactive) | 66.1 µM (inactive) | > 100 µM (inactive)
CN(CCCNC(=O)c1cc(-c2ccccc2)nc2ccccc12)CCCNC(=O)c1cc(-c2ccccc2)nc2ccccc12 | 3.73 µM (inactive) | 1.79 µM (inactive) | 6.1 µM (inactive) | 1.93 µM (inactive) | 2.19 µM (inactive) | 4.17 µM (inactive) | 1.85 µM (inactive) | 6.35 µM (inactive) | 3.56 µM (inactive) | 2.8 µM (inactive) | 4.62 µM (inactive) | 5.32 µM (inactive) | 1.77 µM (inactive) | 1.66 µM (inactive) | 2.33 µM (inactive) | 4.45 µM (inactive) | 1.78 µM (inactive) | 2.07 µM (inactive) | 4.41 µM (inactive)
CN(C)/N=C1/CCC(C(F)(F)F)(C(F)(F)F)O1 | 30.2 µM (inactive) | 16.7 µM (inactive) | 36.9 µM (inactive) | 30.6 µM (inactive) | 28.3 µM (inactive) | 39.2 µM (inactive) | 33.6 µM (inactive) | 37.4 µM (inactive) | 28.9 µM (inactive) | 31.5 µM (inactive) | 32.6 µM (inactive) | 43.5 µM (inactive) | 39.5 µM (inactive) | 21.9 µM (inactive) | 26.3 µM (inactive) | 51.4 µM (inactive) | – | 28.1 µM (inactive) | 31.2 µM (inactive)
CC(=O)OC/C=C(/CCl)CCC(Br)C(C)(C)Br.CC(=O)OC/C=C(\CCl)CCC(Br)C(C)(C)Br (centres undefined) | > 10 µM (inactive) | > 10 µM (inactive) | > 10 µM (inactive) | > 10 µM (inactive) | > 10 µM (inactive) | > 10 µM (inactive) | > 10 µM (inactive) | > 10 µM (inactive) | > 10 µM (inactive) | > 10 µM (inactive) | > 10 µM (inactive) | > 10 µM (inactive) | > 10 µM (inactive) | > 10 µM (inactive) | > 10 µM (inactive) | > 10 µM (inactive) | > 10 µM (inactive) | > 10 µM (inactive) | > 10 µM (inactive)
O=C(N/N=C1\CCc2ccccc21)N/N=C1\CCc2ccccc21 | > 100 µM (inactive) | > 100 µM (inactive) | – | > 100 µM (inactive) | > 100 µM (inactive) | > 100 µM (inactive) | > 100 µM (inactive) | > 100 µM (inactive) | > 100 µM (inactive) | > 100 µM (inactive) | > 100 µM (inactive) | > 100 µM (inactive) | > 100 µM (inactive) | > 100 µM (inactive) | > 100 µM (inactive) | > 100 µM (inactive) | > 100 µM (inactive) | > 100 µM (inactive) | > 100 µM (inactive)
O=C(OCc1ccccc1)N(CCCCN(CCCNCc1ccccc1)C(=O)OCc1ccccc1)CCCNCc1ccccc1 | 0.242 µM (active) | 0.262 µM (active) | 1.49 µM (inactive) | 0.462 µM (active) | 0.186 µM (active) | 1.31 µM (inactive) | 0.22 µM (active) | 1.77 µM (inactive) | 1.11 µM (active) | 0.24 µM (active) | 1.63 µM (inactive) | 1.57 µM (inactive) | 12.2 µM (inactive) | 0.697 µM (active) | 1.43 µM (inactive) | 1.58 µM (inactive) | 0.36 µM (active) | 0.881 µM (active) | 0.883 µM (active)
COc1cc(/C=C/C(=O)CC(=O)/C=C/c2cc(OC)c(O)c(OC)c2)cc(OC)c1O | > 25 µM (inactive) | 10.1 µM (inactive) | 12.6 µM (inactive) | 5.37 µM (inactive) | 16.3 µM (inactive) | 7.93 µM (inactive) | 7.82 µM (inactive) | 10.3 µM (inactive) | 10.4 µM (inactive) | 9.86 µM (inactive) | 3.33 µM (inactive) | 5.37 µM (inactive) | 9.91 µM (inactive) | 8.63 µM (inactive) | 3.01 µM (inactive) | 20.2 µM (inactive) | 8.34 µM (inactive) | 4.22 µM (inactive) | 5.35 µM (inactive)
O=C(NC(O)(C(F)(F)F)C(F)(F)F)c1ccccc1 | > 100 µM (inactive) | > 100 µM (inactive) | > 100 µM (inactive) | > 100 µM (inactive) | > 100 µM (inactive) | > 100 µM (inactive) | > 100 µM (inactive) | > 100 µM (inactive) | > 100 µM (inactive) | > 100 µM (inactive) | > 100 µM (inactive) | > 100 µM (inactive) | > 100 µM (inactive) | > 100 µM (inactive) | > 100 µM (inactive) | > 100 µM (inactive) | > 100 µM (inactive) | – | > 100 µM (inactive)
CC(C)OC(=O)C1(C(C)C)CCc2ccc(C(=O)CCC(=O)O)cc21 (centres undefined) | > 100 µM (inactive) | > 100 µM (inactive) | > 100 µM (inactive) | > 100 µM (inactive) | > 100 µM (inactive) | > 100 µM (inactive) | > 100 µM (inactive) | > 100 µM (inactive) | > 100 µM (inactive) | > 100 µM (inactive) | > 100 µM (inactive) | > 100 µM (inactive) | > 100 µM (inactive) | > 100 µM (inactive) | > 100 µM (inactive) | > 100 µM (inactive) | > 100 µM (inactive) | > 100 µM (inactive) | > 100 µM (inactive)
CCOC(=O)C(C#N)C1=CC(=O)C(=O)c2ccc(O)cc21 (centres undefined) | > 100 µM (inactive) | > 100 µM (inactive) | > 100 µM (inactive) | > 100 µM (inactive) | > 100 µM (inactive) | 17.2 µM (inactive) | 36.7 µM (inactive) | 19.3 µM (inactive) | > 100 µM (inactive) | > 100 µM (inactive) | > 100 µM (inactive) | > 100 µM (inactive) | 90.6 µM (inactive) | 42.7 µM (inactive) | 51.1 µM (inactive) | > 100 µM (inactive) | 31.9 µM (inactive) | 17.1 µM (inactive) | 78 µM (inactive)
COc1ccc2c(c1)c1nn(CCN3CCCCC3)c3ccc4c(=O)n(CCN(C)C)c(=O)n2c4c13 | < 0.01 µM (active) | 0.148 µM (active) | < 0.0142 µM (active) | < 0.01 µM (active) | 0.076 µM (active) | < 0.0325 µM (active) | < 0.01 µM (active) | < 0.022 µM (active) | 0.019 µM (active) | < 0.01 µM (active) | < 0.0164 µM (active) | < 0.01 µM (active) | < 0.01 µM (active) | 0.0406 µM (active) | < 0.01 µM (active) | 0.029 µM (active) | 0.244 µM (active) | 0.0304 µM (active) | < 0.01 µM (active)
C[C@H]1S[C@H](c2c(Cl)cccc2Cl)N2Cc3ccccc3N=C12 | 21 µM (inactive) | 11.1 µM (inactive) | 10.2 µM (inactive) | 14.4 µM (inactive) | 5.9 µM (inactive) | 10.8 µM (inactive) | 12.9 µM (inactive) | 11 µM (inactive) | 14.5 µM (inactive) | 16 µM (inactive) | 14.1 µM (inactive) | 14.2 µM (inactive) | 9.16 µM (inactive) | 10.2 µM (inactive) | 14.1 µM (inactive) | 17 µM (inactive) | 16.6 µM (inactive) | 9.82 µM (inactive) | 12.1 µM (inactive)
CC[C@@]1(O)C(=O)OCc2c1cc1n(c2=O)Cc2c-1nc1ccccc1c2/C=N/NC(=O)c1ccc(N)cc1 | < 0.01 µM (active) | 4.53 µM (inactive) | – | 1.12 µM (inactive) | 0.0327 µM (active) | > 100 µM (inactive) | 0.0273 µM (active) | 0.0798 µM (active) | 0.177 µM (active) | 1.52 µM (inactive) | < 0.0322 µM (active) | < 0.01 µM (active) | 0.123 µM (active) | 0.136 µM (active) | 0.0489 µM (active) | 15.6 µM (inactive) | 6.44 µM (inactive) | 0.0208 µM (active) | 0.279 µM (active)
CCCCCCCC1(N=[N+]=[N-])C(=O)Nc2ccccc2C1=O (centres undefined) | 17.1 µM (inactive) | 20 µM (inactive) | – | 20.6 µM (inactive) | > 10 µM (inactive) | 17.5 µM (inactive) | 13.3 µM (inactive) | 18.2 µM (inactive) | 11.5 µM (inactive) | 25.5 µM (inactive) | 12.6 µM (inactive) | 15.6 µM (inactive) | 17.3 µM (inactive) | 15.1 µM (inactive) | 14 µM (inactive) | 17.2 µM (inactive) | 21 µM (inactive) | 11.3 µM (inactive) | 12.1 µM (inactive)
